The source of these data is patent US20260373119A1, “NOVEL COMPOUND, AND COMPOSITION FOR PREVENTING OR TREATING HER2-POSITIVE CANCER, COMPRISING SAME” (EWHA UNIVERSITY - INDUSTRY COLLABORATION FOUNDATION, priority 2022, published 2026).

Holding throughout (format): cell-based
The test system of experiment [1] is HCT15 (HER2-positive colorectal cancer cell line). The experiment can be described thus: antiproliferative effect, HCT15. The note with it: Homo sapiens, HCT-15, 72 hours. Here is the method:
(§1) The antiproliferative effects were measured after treating Compounds 1 to 22 for 72 hours on HCT15 (HER2-positive colorectal cancer cell line), NCI-N87 (HER2-positive gastric cancer cell line), T47D (HER2-negative breast cancer cell line), and HeLa (HER2-negative cervical cancer cell line). As a result, strong antiproliferative effects were generally observed in the NCI-N87 cell line (Table 2).
(§2) The antiproliferative effects of the candidate compound, resulting from HER2 inhibition, were evaluated. Specifically, to confirm the anticancer effects of the candidate compound, cancer cells were seeded at a density of 10^4 cells/well in a 96-well cell culture plate for 20 hours. The cells were starved in serum-free media for 4 hours, followed by replacement with media containing the compound at specified concentrations. The cells were then incubated for 72 hours under conditions of 5% CO2 at 37 °C. Cell viability was determined by adding 5 μL of EZ-CytoX to each well and measuring absorbance at 450 nm. The measurements were performed using an ELISA Microplate Reader (VersaMax, Molecular Devices).

Experiment [2] deals with HeLa (HER2-negative cervical cancer cell line). The experiment can be described thus: antiproliferative effect, HeLa. The note with it: Homo sapiens, 72 hours. As to the method:
as §1, §2

The target in experiment [3] is T1, ELF3-MED23 protein-protein interaction (Homo sapiens, UniProt Q9ULK4).
T1 construct: followed by the addition of either the candidate compound or MED23 protein constructs; endogenous in cells; host or cells: 293T kidney cells (MED23 endogenous; GAL4-ELF3 transfected)
T1 sequence (Q9ULK4 1-1368): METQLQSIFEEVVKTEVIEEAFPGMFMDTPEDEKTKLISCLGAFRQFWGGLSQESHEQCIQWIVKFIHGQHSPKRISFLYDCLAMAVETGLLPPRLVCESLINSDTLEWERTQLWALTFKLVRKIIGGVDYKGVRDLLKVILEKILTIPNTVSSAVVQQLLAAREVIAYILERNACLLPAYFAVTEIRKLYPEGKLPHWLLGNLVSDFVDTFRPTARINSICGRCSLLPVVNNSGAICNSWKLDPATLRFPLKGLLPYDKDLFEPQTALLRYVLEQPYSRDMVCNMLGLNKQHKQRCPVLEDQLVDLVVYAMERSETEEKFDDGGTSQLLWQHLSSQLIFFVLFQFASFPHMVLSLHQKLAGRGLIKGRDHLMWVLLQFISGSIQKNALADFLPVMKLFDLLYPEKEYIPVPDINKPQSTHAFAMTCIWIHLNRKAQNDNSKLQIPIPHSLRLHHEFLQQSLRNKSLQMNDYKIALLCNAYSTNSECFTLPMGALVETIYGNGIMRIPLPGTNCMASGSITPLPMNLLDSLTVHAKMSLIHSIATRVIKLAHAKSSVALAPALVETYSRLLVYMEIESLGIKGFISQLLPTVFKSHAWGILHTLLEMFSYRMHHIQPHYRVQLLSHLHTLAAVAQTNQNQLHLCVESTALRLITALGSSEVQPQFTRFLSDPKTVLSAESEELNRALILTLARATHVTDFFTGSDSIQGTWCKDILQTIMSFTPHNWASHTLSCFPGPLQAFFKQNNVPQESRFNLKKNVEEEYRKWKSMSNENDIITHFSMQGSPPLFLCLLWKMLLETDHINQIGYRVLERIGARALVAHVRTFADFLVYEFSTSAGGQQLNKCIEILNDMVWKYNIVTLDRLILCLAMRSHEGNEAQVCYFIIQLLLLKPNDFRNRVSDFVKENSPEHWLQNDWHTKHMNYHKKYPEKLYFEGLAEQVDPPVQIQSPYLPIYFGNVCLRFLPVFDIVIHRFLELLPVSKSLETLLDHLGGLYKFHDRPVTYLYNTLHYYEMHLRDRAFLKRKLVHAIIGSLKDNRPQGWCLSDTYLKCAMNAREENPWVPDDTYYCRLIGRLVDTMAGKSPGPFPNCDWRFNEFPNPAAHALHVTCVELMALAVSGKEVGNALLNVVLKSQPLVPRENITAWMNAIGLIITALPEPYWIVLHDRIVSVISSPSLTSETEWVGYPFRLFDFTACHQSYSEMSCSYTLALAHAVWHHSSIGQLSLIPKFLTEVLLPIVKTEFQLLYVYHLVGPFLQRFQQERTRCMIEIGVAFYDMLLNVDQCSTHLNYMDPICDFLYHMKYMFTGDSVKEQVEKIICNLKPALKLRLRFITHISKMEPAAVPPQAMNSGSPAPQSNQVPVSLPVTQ
The experiment can be described thus: SEAP reporter assay, ELF3-MED23 PPI inhibition (293T kidney cells). The note with it: HEK-293T; 10 μM. Here is the method:
To verify whether the D400 and H449 residues play a critical role in the ELF3-MED23 protein-protein interaction, a SEAP assay was performed. Specifically, 293T kidney cells were seeded at a density of 5×10^3 cells/well in a 96-well microplate (SPL, Korea) and cultured overnight. Subsequently, the cells were co-transfected with 100 ng of each plasmid using transfection-optimized medium (Welgene, Korea). The plasmids used included the SEAP reporter gene (pG5IL2SX) and GAL4-ELF3 expression vector (pBJ GAL4-ELF3). For transfection, the cells were incubated with WelFectQ (Welgene, Korea) for 3 hours, followed by the addition of either the candidate compound or MED23 protein constructs (pcDNA MED23^WT, K397A, D400A, H449G, and D400A/H449G). The treated cells were incubated for 12 hours. The candidate compound was added in an incubator at 5% CO2 and 37 °C, and the plate was incubated at 65 °C for 3 hours to inactivate all enzymes except SEAP (Secreted Alkaline Phosphatase). A mixture comprising 100 μL of substrate solution prepared with 1.19 μL of 0.1 M 4-methylumbelliferyl phosphate (Sigma, USA), 25 μL of inactivated medium, and 75 μL of double-distilled water was added, followed by the addition of 98.81 μL of 2 M diethanolamine (pH 10, Sigma, USA). The plate was incubated overnight at 37 °C. Subsequently, the fluorescence intensity was measured using a fluorometer (SPECTRAmax […], Molecular Devices, USA) at an excitation wavelength of 360 nm and an emission wavelength of 440 nm.
To further elaborate on the above findings, small molecule compounds that could affect the ELF3-MED23 PPI were designed and synthesized. Specifically, non-essential side chains were removed from gefitnib, and compounds were designed to include both hydrogen bond donors and acceptors for the D400 and H449 residues of MED23, respectively (FIG. 4A). Specifically, chalcones and pyrazolines were selected as core scaffolds, and 25 compounds (11 chalcones and 14 pyrazoline-based compounds) were prepared. The ELF3-MED23 PPI inhibitory activity of all prepared compounds was measured using a SEAP assay.
(Reporter assays use an easily measured gene product as a stand-in for the process of interest.)

For experiment [4], the system named is NCI-N87 (HER2-positive gastric cancer cell line). The experiment can be described thus: antiproliferative effect, NCI-N87. The note with it: Homo sapiens, NCI-N87; 72 hours; HER2-positive. As to the method:
as §1, §2

Experiment [5] concerns T47D (HER2-negative breast cancer cell line). The experiment can be described thus: antiproliferative effect, T47D. The conditions noted are these: Homo sapiens, 72 hours. As to the method:
as §1, §2

As a reminder, the IC50 is the concentration at which inhibition is half-maximal. A high value points to weaker potency in that assay. As a reminder, the inhibition is the percentage by which the read-out fell short of the control. High values mean strong suppression, low ones little suppression. For `COc1ccc(/C=C/C(=O)c2ccccc2O)cc1` [Compound 6, 1-(2-Hydroxyphenyl)-3-(4-methoxyphenyl)-propenone], the IC50 was more than 50 µM in experiment [1], more than 50 µM in experiment [2], 44.9 ± 0.8 µM in experiment [4] and more than 50 µM in experiment [5]. In addition, in experiment [3], the inhibition at 10 µM was determined as 90%.

As to `O=C(/C=C/c1ccco1)c1ccccc1O` [Compound 8, 3-Furan-2-yl-1-(2-hydroxyphenyl)-propenone], the concentration for half-maximal inhibition (IC50) in experiment [1] is more than 50 µM; in experiment [2], 42.19 ± 0.01 µM; in experiment [4] it was more than 50 µM; in experiment [5] it was more than 50 µM. Moreover, the inhibition at 10 µM in experiment [3] came to 50%.

In turn, `CCC(=O)N1N=C(c2cccc(O)c2)CC1c1ccc(Cl)cc1` (centres unmarked) [Compound 25, 1-[5-(4-Chlorophenyl)-3-(3-hydroxyphenyl)-4,5-dihydropyrazol-1-yl]-propan-1-one] registered an inhibition at 10 µM in experiment [3] of 42%.

`CC(=O)N1N=C(c2cccc(O)c2)CC1c1ccc(O)cc1` (centres unmarked) [Compound 16, 1-[5-(4-Hydroxyphenyl)-3-(3-hydroxyphenyl)-4,5-dihydropyrazol-1-yl]-ethanone]: the IC50 in experiment [1], in experiment [2], in experiment [4] and in experiment [5] was more than 50 µM throughout. Also, the inhibition at 10 µM in experiment [3] was found to be 37%.

As to `CCC(=O)N1N=C(c2cccc(O)c2)CC1c1cccs1` (centres unmarked) [Compound 24, 1-[3-(3-Hydroxyphenyl)-5-thiophen-2-yl-4,5-dihydropyrazol-1-yl]-propan-1-one], in experiment [3], the inhibition at 10 µM came out at 34%.

Consider `O=C(/C=C/c1ccc(Cl)cc1)c1cccc(O)c1` [Compound 4, 3-(4-Chlorophenyl)-1-(3-hydroxyphenyl)-propenone], for which the IC50 is 12 ± 0.17 µM in experiment [1], 25.64 ± 0.09 µM in experiment [2], 4.82 ± 0.1 µM in experiment [4] and 17.57 ± 0.13 µM in experiment [5]. Moreover, in experiment [3], the inhibition at 10 µM stood at 80%.

Regarding `COc1ccc(C2CC(c3cccc(O)c3)=NN2C(C)=O)cc1` (centres unmarked) [Compound 13, 1-[3-(3-Hydroxyphenyl)-5-(4-methoxyphenyl)-4,5-dihydropyrazol-1-yl]-ethanone], the IC50 in experiment [1], in experiment [2], in experiment [4] and in experiment [5] was more than 50 µM in each case. Further, 10 µM produced 58% inhibition in experiment [3].

`CC(=O)N1N=C(c2ccccc2O)CC1c1ccc(Cl)cc1` (centres unmarked) [Compound 20, 1-[5-(4-Chlorophenyl)-3-(2-hydroxyphenyl)-4,5-dihydropyrazol-1-yl]-ethanone]: the half-inhibitory concentration (IC50) in experiment [1], in experiment [2], in experiment [4] and in experiment [5] was more than 50 µM throughout. The inhibition at 10 µM in experiment [3] stood at 45%.

Turning to `CC(=O)N1N=C(c2ccccc2O)CC1c1ccco1` (centres unmarked) [Compound 17, 1-[5-Furan-2-yl-3-(2-hydroxyphenyl)-4,5-dihydropyrazol-1-yl]-ethanone], the IC50 in experiment [1], in experiment [2], in experiment [4] and in experiment [5] was more than 50 µM throughout. Moreover, the inhibition at 10 µM in experiment [3] amounted to 23%.

Turning to `O=C(/C=C/c1ccc(Cl)cc1)c1ccccc1O` [Compound 10, 3-(4-Chlorophenyl)-1-(2-hydroxyphenyl)-propenone], the IC50 in experiment [1] worked out at 14.36 ± 0.12 µM; in experiment [2], 5.54 ± 0.21 µM; in experiment [4], 14.38 ± 0.06 µM; in experiment [5], 8.96 ± 0.02 µM. Also, at 10 µM the inhibition in experiment [3] was 80%.

In the case of `COc1ccc(/C=C/C(=O)c2cccc(O)c2)c2ccccc12` [Compound 3, 1-(3-Hydroxyphenyl)-3-(4-methoxynaphthalen-1-yl)-propenone], the IC50 came to 7.64 ± 0.09 µM in experiment [1], 9.73 ± 0.04 µM in experiment [2], 3.45 ± 0.05 µM in experiment [4] and 1.21 ± 0.02 µM in experiment [5]. Besides, in experiment [3], testing at 10 µM gave an inhibition of 70%.

For the compound `O=C(/C=C/c1cccs1)c1ccccc1O` [Compound 11, 1-(2-Hydroxyphenyl)-3-thiophen-2-yl-propenone], the half-inhibitory concentration (IC50) in experiment [1] is more than 50 µM; in experiment [2], 44.31 ± 0.11 µM; in experiment [4], 47.76 ± 0.22 µM; in experiment [5], more than 50 µM. Also, the inhibition at 10 µM in experiment [3] was found to be 50%.

For `O=C(/C=C/c1ccco1)c1cccc(O)c1` [Compound 1, 3-Furan-2-yl-1-(3-hydroxyphenyl)-propenone], the IC50 in experiment [1] stood at 29.66 ± 0.14 µM; in experiment [2], 19.5 ± 0.04 µM; in experiment [4], 13.5 ± 0.29 µM; in experiment [5], 8.48 ± 0.02 µM. The compound also returned an inhibition at 10 µM in experiment [3] of 86%.

With `COc1ccc(/C=C/C(=O)c2ccccc2O)c2ccccc12` [Compound 7, 1-(2-Hydroxyphenyl)-3-(4-methoxynaphthalen-1-yl)-propenone], the IC50 amounted to 14.18 ± 0.05 µM in experiment [1], 16.13 ± 0.08 µM in experiment [2], 11.4 ± 0.12 µM in experiment [4] and 15.56 ± 0.15 µM in experiment [5]. For the same compound, 10 µM produced 80% inhibition in experiment [3].

Turning to `COc1ccc(C2CC(c3cccc(O)c3)=NN2C(C)=O)c2ccccc12` (centres unmarked) [Compound 14, 1-[3-(3-Hydroxyphenyl)-5-(4-methoxynaphthalen-1-yl)-4,5-dihydropyrazol-1-yl]-ethanone], the IC50 in experiment [1] worked out at 19.5 ± 0.41 µM; in experiment [2], 0.69 µM; in experiment [4], 42.4 ± 0.86 µM; in experiment [5], 5.57 ± 0.26 µM. For the same compound, the inhibition at 10 µM in experiment [3] was determined as 14%.

As for `CCC(=O)N1N=C(c2cccc(O)c2)CC1c1ccc(OC)cc1` (centres unmarked) [Compound 23, 1-[3-(3-Hydroxyphenyl)-5-(4-methoxyphenyl)-4,5-dihydropyrazol-1-yl]-propan-1-one], testing at 10 µM in experiment [3] gave an inhibition of 87%.
